The values below come from US10800778B2 (Entasis Therapeutics Limited, priority 2016, dated 2020).

Counter-ions that a name gives are not always drawn.

The subject of data set [1] is E. coli AmpC, OXA-1, CTX-M-15, TEM-1. Briefly: MIC, CLSI broth microdilution, cefpodoxime with or without BLI. Format: cell-based. Conditions: Escherichia coli, read-out: MIC of beta-lactam alone, heading: MIC of beta-lactam alone, no BLI. On the procedure:
The minimal inhibitory concentration (MIC) values against each organism and drug combination were determined using the Clinical and Laboratory Standards Institute guidelines (CLSI) broth microdilution methodology (CLSI M07-A10). The recommended quality control (QC) bacterial strains E. coli ATCC 25922, E. coli ATCC 35218 and Klebsiella pneumoniae ATCC 700603 were incorporated into each test according to the CLSI guidelines to assure that there was no variation between test dates (CLSI M100-S25). The MICs of these QC strains were within QC range on all test occasions. Drug containing plates were made using the master plate method. A cefpodoxime solution was prepared to 20× concentration and 2-fold serial dilutions were made in cation adjusted Mueller-Hinton Broth. Equal volumes of 20× examplar compounds at a fixed concentration were added to the master plate. 10 uL was stamped into daughter plates using a Tecan EVO robot. Organism suspensions were adjusted to a 0.5 McFarland standard and further diluted to yield a final inoculum between 3×10^5 and 7×10^5 colony-forming units (CFU)/mL. Bacterial inocula were made in sterile, cation adjusted Mueller-Hinton Broth (Beckton Dickinson). An inoculum volume of 1.1× concentration of 90 uL was added to wells (using a Tecan EVO robot). All inoculated microdilution plates were incubated in ambient air at 35° C. for 18-24 hours.
Background: In broth dilution the organism is exposed to a series of concentrations in liquid medium.

The test system of data set [2] is E. coli ARC2687 (AmpC, CTX-M-14). Put plainly: Cefpodoxime MIC against clinical isolate E. coli ARC2687. Format: cell-based.
A further data set concerns E. coli WT (ATCC 25922). Put plainly: MIC, CLSI broth microdilution, beta-lactam with or without BLI. Format: cell-based.
Data set [3] relates to C. freundii AmpC, TEM-1, CMY65. The description is as above. Format: cell-based.
Data set [4] concerns Klebsiella pneumoniae SHV-18, OXA-2, OKP-6 (ATCC 700603). Described as above. Format: cell-based.
Data set [5] deals with TEM-1 (Class A beta-lactamase) (Escherichia coli, UniProt P62593). Briefly: Inhibition of beta-lactamase enzymes (nitrocefin hydrolysis), TEM-1. Format: biochemical. Conditions: read-out: Class A TEM-1 60 min IC50, nitrocefin 100 μM. The gist of the method:
(§1)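 Nitrocefin (100 μM) hydrolysis followed at 490 nm for 1 h in 0.1 M sodium phosphate pH 7.0, 10 mM NaHCO3, 0.005% Triton X-100, with 3-fold inhibitor dilutions from 100 μM to 62.7 pM. Progress curves fitted globally to give kinact/Ki or Ki; percent inhibition from best-fit absorbance fitted with Hill equation.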

Data set [6] concerns the target OXA-48 (Class D beta-lactamase) (Klebsiella pneumoniae, UniProt Q6XEC0). Put plainly: Inhibition of beta-lactamase enzymes (nitrocefin hydrolysis), OXA-48. Format: biochemical. Conditions: read-out: Class D OXA-48 60 min IC50, nitrocefin 100 μM. The gist of the method: as §1
Data set [7] in a line: Rat PK, intravenous and oral. Format: in vivo, Sprague-Dawley rats. The settings on record: Sprague-Dawley, plasma; rat, IV 10 mg/kg; analyte = compound administered. On the procedure:
Intravenous rat pharmacokinetics of exemplar compounds were determined in jugular vein cannulated Sprague-Dawley rats (n=3) (Harlan Laboratories, Indianapolis, Ind.) at a dose of 10 mg/kg. Compounds were dissolved and administered intravenously in 0.9% saline, pH 6.5 at a dose volume of 2 mL/kg. […] Oral pharmacokinetic studies were conducted with exemplar compounds at 10 mg/kg equivalents of carboxylic acids. Doses were dissolved and administered orally in 25:75 PEG400: water for injection, pH 4.5 at a dose volume of 10 mL/kg. […] Plasma samples were stored at −80° C. prior to bioanalysis.
Plasma samples were thawed on ice prior to processing. Samples (30 μL) were diluted and proteins precipitated with 180 μL of acetonitrile containing 0.1% formic acid and 250 ng/mL of carbutamide (N1-(butylcarbanoyl)-sulfanilamide, Sigma-Aldrich Catalog # S385433) as an internal standard. Samples were vortexed for 30 seconds, centrifuged at 3400 g for 10 minutes and the supernatant transferred to injection vials.
LC/MS/MS analysis was completed on an AB Sciex QTrap 6500 mass spectrometer in positive ionization mode, coupled to a Schimadzu Nexera LC system. A Waters Atlantis T3 (3 μm, 3.0×50 mm) column was used for chromatographic separation. Injection volume was […] The mobile phase consisted 0.1% formic acid in water (A) and 0.1% formic acid in acetonitrile (B), with a gradient of 2-98% B:A over two minutes.
Plasma concentration vs. time profiles following intravenous (IV) administration and oral (PO) administration of exemplar compounds were analyzed by non-compartment analysis using WinNonLin 6.4.

For data set [8], the system named is E. coli ARC2687 (AmpC, CTX-M-14). Briefly: Mouse neutropenic thigh infection model, oral efficacy of cefpodoxime proxetil with Example 35. Format: in vivo.
The mark [9] stands for this setting: BLI at fixed 4 μg/ml, K. pneumoniae ATCC 700603.

Chain of OXA-48 (Class D beta-lactamase) (Q6XEC0 whole entry, looked up, species assumed): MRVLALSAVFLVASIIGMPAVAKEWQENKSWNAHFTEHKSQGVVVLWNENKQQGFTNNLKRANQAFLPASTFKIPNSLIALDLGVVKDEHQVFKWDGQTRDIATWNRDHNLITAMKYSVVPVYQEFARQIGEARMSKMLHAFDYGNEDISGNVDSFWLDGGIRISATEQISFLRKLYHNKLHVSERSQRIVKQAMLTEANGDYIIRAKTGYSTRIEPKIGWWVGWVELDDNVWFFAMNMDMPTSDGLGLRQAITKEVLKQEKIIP
Chain of TEM-1 (Class A beta-lactamase) (P62593 whole entry, looked up, species assumed): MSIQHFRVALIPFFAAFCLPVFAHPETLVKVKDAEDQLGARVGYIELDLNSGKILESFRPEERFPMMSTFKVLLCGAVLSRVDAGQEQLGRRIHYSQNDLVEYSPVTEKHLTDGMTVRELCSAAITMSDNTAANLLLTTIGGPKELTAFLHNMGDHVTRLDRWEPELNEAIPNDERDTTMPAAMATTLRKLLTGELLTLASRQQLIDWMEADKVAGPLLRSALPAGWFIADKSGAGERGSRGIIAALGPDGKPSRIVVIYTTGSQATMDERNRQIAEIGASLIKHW

Take `COCC1=C(C(=O)O)N2C(=O)[C@@H](NC(=O)/C(=N\OC)c3csc(N)n3)[C@H]2SC1` [Cefpodoxime, reference compound]: the MIC – broadly, the least concentration at which growth counts as inhibited – in data set [1] is more than 64 µg/mL; in [2] (Escherichia coli, cefpodoxime alone), more than 512 µg/mL; with E. coli WT (ATCC 25922) (Escherichia coli, ATCC25922, no BLI, read-out: MIC of beta-lactam alone), 1 µg/mL; in data set [3] (Citrobacter freundii, read-out: MIC of beta-lactam alone, no BLI, heading: MIC of beta-lactam alone) it was more than 64 µg/mL; in [4] (Klebsiella pneumoniae, ATCC700603, no BLI, K. pneumoniae SHV-18, OXA-2, OKP-6 (ATCC 700603), read-out: MIC of beta-lactam alone) it was 16 µg/mL. Moreover, the “MIC of beta-lactam alone” value in data set [3] (no BLI) is more than 64 µg/mL.
Regarding `CC1=C[C@@H](C(N)=O)N2C[C@@H]1N(O[C@H](F)C(=O)O)C2=O` [Example 33, (2R)-2-(((2S,5R)-2-carbamoyl-4-methyl-7-oxo-1,6-diazabicyclo[3.2.1]oct-3-en-6-yl)oxy)-2-fluoroacetic acid lithium salt], the IC50 (in general, the midpoint of a concentration-inhibition curve) in data set [5] came to 3.2 nM. Further, the “cefpodoxime MIC in combination with BLI” value in [2] (BLI at 4 μg/mL) was less than 0.03 µg/mL. In data set [6], the IC50 is 77 nM. Also, in [7], the AUC (commonly concentration integrated over time) was 26.3 µM·h. In the data set on E. coli WT (ATCC 25922) (BLI at fixed 4 μg/ml), the “MIC of cefixime in presence of BLI” value was not above 0.06 µg/mL, the “MIC of cefuroxime in presence of BLI” value was less than 0.03125 µg/mL, the “MIC of faropenem in presence of BLI” value is not above 0.06 µg/mL and the “MIC of tebipenem in presence of BLI” value was not above 0.06 µg/mL. Besides, in data set [3] (BLI at fixed 4 μg/ml), the “MIC of cefixime in presence of BLI” value was not above 0.06 µg/mL, the “MIC of cefuroxime in presence of BLI” value is less than 0.03125 µg/mL, the “MIC of faropenem in presence of BLI” value is not above 0.06 µg/mL and the “MIC of tebipenem in presence of BLI” value was not above 0.06 µg/mL. Further, in [4] (setting [9]), the “MIC of cefixime in presence of BLI” value is not above 0.06 µg/mL, the “MIC of cefuroxime in presence of BLI” value was determined as 4 µg/mL, the “MIC of faropenem in presence of BLI” value is 0.5 µg/mL and the “MIC of tebipenem in presence of BLI” value was determined as 0.125 µg/mL.
With `C[C@@H](O)[C@H]1C(=O)N2C(C(=O)O)=C(S[C@@H]3CN[C@H](C(=O)N(C)C)C3)[C@H](C)[C@H]12` [Meropenem], the “reduction in CFU relative to initiation of therapy” value in data set [8] (600 mg/kg q6h administered subcutaneously, positive control) is “over 1 log10”. This molecule also showed a log10CFU/gm thigh in data set [8] (Meropenem 600 mg/kg SC/q6h, positive control, mouse neutropenic thigh, E. coli ARC2687) of 5.17 log10CFU/gm thigh. Besides, in [8] (Meropenem 600 mg/kg SC/q6h, relative to 26 hr growth control), the “CFU Change from 26 hr” value is reported as −5.69 log10 CFU/gm. Moreover, the “CFU Change from 2 hr” value in data set [8] (Meropenem 600 mg/kg SC/q6h, relative to initiation of therapy) was −1.10 log10 CFU/gm.
